Laboratory results as given in article PMC7659962, “Essential Oils from Monarda fistulosa: Chemical Composition and Activation of Transient Receptor Potential A1 (TRPA1) Channels” (Molecules, 2020).

molecular target: T1, rTRPA1 (Rattus norvegicus, UniProt Q6RI86); test: Fura-2 calcium imaging in stably transfected HEK […] cells; assay type: cell-based; details: 100 µM; agonist; HBSS pH […]; […] ratio change from baseline; blocked by HC-030031; nontransfected HEK cells as control
T1 construct: gene Trpa1
T1 sequence (Q6RI86 whole entry): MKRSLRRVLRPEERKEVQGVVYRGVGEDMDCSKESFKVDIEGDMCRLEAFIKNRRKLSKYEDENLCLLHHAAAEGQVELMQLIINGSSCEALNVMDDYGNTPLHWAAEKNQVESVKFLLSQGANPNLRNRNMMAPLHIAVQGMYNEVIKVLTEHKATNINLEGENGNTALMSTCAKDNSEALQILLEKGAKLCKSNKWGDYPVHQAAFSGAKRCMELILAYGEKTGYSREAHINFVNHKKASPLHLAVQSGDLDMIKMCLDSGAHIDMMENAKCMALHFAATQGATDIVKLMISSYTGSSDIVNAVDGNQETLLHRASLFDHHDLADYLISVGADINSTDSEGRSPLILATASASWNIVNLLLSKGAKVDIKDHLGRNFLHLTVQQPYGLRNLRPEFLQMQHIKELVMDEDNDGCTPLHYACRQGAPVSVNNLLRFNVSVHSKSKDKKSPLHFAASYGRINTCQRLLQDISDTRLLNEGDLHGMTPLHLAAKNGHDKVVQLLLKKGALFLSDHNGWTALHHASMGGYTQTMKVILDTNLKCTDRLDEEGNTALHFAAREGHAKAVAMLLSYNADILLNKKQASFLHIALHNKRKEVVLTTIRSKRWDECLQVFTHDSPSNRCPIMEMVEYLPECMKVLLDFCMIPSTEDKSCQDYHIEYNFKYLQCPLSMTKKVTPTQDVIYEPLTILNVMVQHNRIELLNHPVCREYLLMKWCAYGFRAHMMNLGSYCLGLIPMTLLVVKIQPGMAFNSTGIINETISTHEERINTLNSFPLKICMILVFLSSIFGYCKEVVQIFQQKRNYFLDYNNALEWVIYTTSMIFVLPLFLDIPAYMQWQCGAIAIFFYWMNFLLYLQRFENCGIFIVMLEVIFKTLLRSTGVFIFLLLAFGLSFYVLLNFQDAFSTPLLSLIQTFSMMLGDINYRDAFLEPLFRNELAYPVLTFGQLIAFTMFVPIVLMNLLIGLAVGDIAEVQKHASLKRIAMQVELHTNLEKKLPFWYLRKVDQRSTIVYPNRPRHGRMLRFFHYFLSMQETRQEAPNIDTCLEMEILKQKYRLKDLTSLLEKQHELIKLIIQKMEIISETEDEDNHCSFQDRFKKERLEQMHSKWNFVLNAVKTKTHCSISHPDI

| Structure (SMILES) | HEK Cells / rTRPA1 / [Ca^2+]i Change |
| --- | --- |
| C=CC(=C)CCC=C(C)C [β-Myrcene] | 0.111 ± 0.003 |
| Cc1ccc(C(C)C)c(O)c1 [Thymol] | 0.849 ± 0.013 |
| Cc1ccc(C(C)C)cc1O [Carvacrol] | 0.340 ± 0.012 |
